Here are results for two molecules from patent US12133900B2, “Synthesis and composition of amino acid linking groups conjugated to compounds used for the targeted imaging of tumors” (Purdue Research Foundation, priority 2013, dated 2024).

Data set [1] concerns malignant lesions in human ovarian cancer patients. Conditions: intra-operative; cited from earlier work.
The conditions of data set [2]: instability of the thiourea bridge; cited from earlier work.
Data set [3] addresses T1, folate receptor (FR-α) on KB cells (Homo sapiens, UniProt P15328).
T1 construct: KB cells that overexpress FR-α were seeded in 24-well (100,000 cells/well) Falcon plates; host or cells: KB cells (human; described as a HeLa derivative)
The experiment in a line: Competition binding with [3H]-folic acid on KB cells. How it is done: KB cells that overexpress FR-α were seeded in 24-well (100,000 cells/well) Falcon plates and allowed to form monolayers over a period of 24 h. […] After incubating for 1 hour at 37° C., cells were rinsed with PBS (2×0.5 mL) and 1M trichloroacetic acid (1×0.5 mL) to remove any unbound radioactive materials. After adding 1% sodium dodecylsulfate in PBS (0.5 mL), cells were transferred into individual scintillation vials containing Ecolume scintillation cocktail (3.0 mL) and counted in a liquid scintillation analyzer. The relative binding affinities were calculated using a plot of cell bound radioactivity versus the concentration of the test article using Graph Pad Prism 4.
(§1) KB cells that overexpress FR-α were seeded in 24-well (100,000 cells/well) Falcon plates (BD Biosciences, CA) and allowed to form monolayers over a period of 12 h. […] After incubating for 1 h at 37° C., cells were rinsed with PBS (3×0.5 mL, Gibco, NY) to remove any unbound radioactive materials. After adding 0.25 M sodium hydroxide (0.5 mL) and incubating for 12 h at 4° C., cells were transferred into individual scintillation vials containing Ecolite scintillation cocktail (3.0 mL, MP Biomedicals, OH) and counted in a liquid scintillation analyzer (Packard). The relative binding affinities were calculated using a plot of % cell bound radioactivity versus the log concentration of the test article using GraphPad Prism 4.
as §1, with “12 hours.” for “12 h.”, “1 hour” for “1 h”, “12 hours” for “12 h”

Data set [4] in a line: Toxicity in healthy nude mice. The data set is classed as in vivo. On the procedure:
Seven-week-old healthy female nude mice (5 mice/group) were administered with 1 μmol of freshly prepared OTL-0038 or OTL-0039 dissolved in 100 μL of phosphate buffered saline via tail vein injection on day zero. Body weights and clinical observations were monitored prior to dosing and daily thereafter from day zero to 7. Any animals with a body weight loss of 20% or more over two consecutive days would be euthanized, but this was not necessary. The animals were euthanized by CO2 asphyxiation on day 7 and selected tissues (brain, heart, lung, liver, spleen, kidney, stomach, small intestine, large intestine, muscle, skin) were collected into vials containing 4% formalin. Formalin fixed tissues were sectioned into 10 μm thick sections and mounted onto Superfrost Plus™ slides (Fisher Scientific, Pittsburgh Pa.). After staining the slides with H&E, immunohistochemistry (IHC) analysis of the tissues was conducted to determine to the toxicity of OTL-0038 and OTL-0039.

T1 sequence (P15328 25-234): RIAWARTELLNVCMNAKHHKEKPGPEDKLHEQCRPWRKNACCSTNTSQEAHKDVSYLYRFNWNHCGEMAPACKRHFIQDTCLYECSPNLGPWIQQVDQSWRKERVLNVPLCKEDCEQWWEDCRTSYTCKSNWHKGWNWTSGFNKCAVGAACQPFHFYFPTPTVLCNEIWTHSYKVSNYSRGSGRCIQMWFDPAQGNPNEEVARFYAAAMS

With `Nc1nc2ncc(CNc3ccc(C(=O)NC(CCC(=O)NCCNC(=S)Nc4ccc(-c5c6ccc(=O)cc-6oc6cc(O)ccc56)c(C(=O)O)c4)C(=O)O)cc3)nc2c(=O)[nH]1` (stereo not shown) [EC17, folate-ethelenediamine-fluorescein isothiocynate], in data set [1], the “more malignant lesions removed with the dye than without it” value is around 5 × and the “pathology of resected fluorescent lesions” value is “confirmed by pathology to be malignant”. Besides, the “shelf-life stability” value in data set [2] is “easily decomposes”.

With `CC1(C)C(=CC=C2CCCC(C=CC3=[N+](CCCCS(=O)(=O)[O-])c4ccc(S(=O)(=O)O)cc4C3(C)C)=C2Oc2ccc(C[C@@H](NC(=O)c3ccc(NCc4cnc5nc(N)[nH]c(=O)c5n4)cc3)C(=O)O)cc2)N(CCCCS(=O)(=O)O)c2ccc(S(=O)(=O)O)cc21` [OTL-0039, PTE-D-Tyr-S0456], the “affinity and specificity for folate receptor (words)” value in data set [3] (KB cells) was “lower affinity for folate receptor when compared to folic acid and OTL-0038”. Also, the Relative binding affinities in data set [3] (relative affinity of folic acid=1, <1 weaker) is reported as 0.09. Moreover, the “toxicity (conclusion)” value in data set [4] (1 μmol (1000× clinical dose)) is recorded as “not toxic to animals”. In addition, in data set [4] (1 μmol tail vein), the “skin colour immediately after the injection” value is listed as “became green”. For the same molecule, in data set [4] (1 μmol tail vein, day 0 to 7), the activity and behaviour result is listed as “behaved normally throughout the study”; the “body weights over the course of the study” value is “remained stable”. Besides, in data set [4] (1 μmol tail vein, day 7), the “lesions in tissues (IHC data)” value was “no lesions identified in any tissues”.
